Data from patent publication US6737383B1, “Herbicidal oxadiazolidines” (priority 1999, dated 2004).

Columns and labels:
pigweed = experiment: Test B pre/postemergence pigweed; format: in vivo, Amaranthus retroflexus
Summary of the method: (§1)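 Response is a visual 0-to-10 score relative to untreated plants, where 0 means no effect and 10 means complete control, taken twelve to sixteen days after application. Treatments went onto soil at planting and onto foliage of 1- to 4-leaf plants, using a surfactant-containing non-phytotoxic solvent.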

wheat = experiment: Test B pre/postemergence wheat; format: in vivo, Triticum aestivum
Summary of the method: as §1

giant foxtail = experiment: Test B pre/postemergence giant foxtail; format: in vivo, Setaria faberii
Summary of the method: as §1

blackgrass = experiment: Test B pre/postemergence blackgrass; format: in vivo, Alopecurus myosuroides
Summary of the method: as §1

corn = experiment: Test B pre/postemergence corn; format: in vivo, Zea mays
Summary of the method: as §1

bedstraw = experiment: Test B pre/postemergence bedstraw; format: in vivo, Galium aparine
Summary of the method: as §1

morningglory = experiment: Test B pre/postemergence morningglory; format: in vivo, Ipomoea hederacea
Summary of the method: as §1

cocklebur = experiment: Test B pre/postemergence cocklebur; format: in vivo, Xanthium strumarium
Summary of the method: as §1

purple nutsedge = experiment: Test B pre/postemergence purple nutsedge; format: in vivo, Cyperus rotundus; conditions: for Plant response rating, Nutsedge: Postemergence, scale of 0 to 10 where 0 is no effect and 10 is complete control
Summary of the method: as §1

rape = experiment: Test B pre/postemergence rape; format: in vivo, Brassica napus
Summary of the method: as §1

velvetleaf = experiment: Test B pre/postemergence velvetleaf; format: in vivo, Abutilon theophrasti
Summary of the method: as §1

sugar beet = experiment: Test B pre/postemergence sugar beet; format: in vivo, Beta vulgaris
Summary of the method: as §1

surinam grass = experiment: Test B pre/postemergence surinam grass; format: in vivo, Brachiaria decumbens; conditions: for Plant response rating, B. signalgrass: Postemergence
Summary of the method: as §1

crabgrass = experiment: Test B pre/postemergence crabgrass; format: in vivo, Digitaria sanguinalis
Summary of the method: as §1

wild oat = experiment: Test B pre/postemergence wild oat; format: in vivo, Avena fatua
Summary of the method: as §1

soybean = experiment: Test B pre/postemergence soybean; format: in vivo, Glycine max
Summary of the method: as §1

[1] = Postemergence, Rate 62 g/ha, scale of 0 to 10, 0 is no effect, 10 is complete control
[2] = Postemergence, Rate 500 g/ha, scale of 0 to 10 where 0 is no effect and 10 is complete control
[3] = Preemergence, Rate 62 g/ha, scale 0 to 10 (0 no effect, 10 complete control)
[4] = Preemergence, Rate 125 g/ha, scale 0 to 10, 0 is no effect, 10 is complete control
[5] = Preemergence, Rate 500 g/ha, scale of 0 to 10 where 0 is no effect and 10 is complete control
[6] = Rate 250 g/ha, Postemergence, scale of 0 to 10 where 0 is no effect and 10 is complete control
[7] = Postemergence, Rate 125 g/ha, scale 0 to 10, 0 is no effect, 10 is complete control

With COCn1c(=O)on(C(=O)N(c2ccccc2)C(C)C)c1=O [Compound 562] the “Redroot pigweed plant response rating” value (pigweed; [1]) was 9, the “Plant response rating, Redroot pigweed” value (pigweed; [2]) was 9 and the “Redroot pigweed plant response rating” value (pigweed; [3]) was 10. For the same compound, the “Redroot pigweed plant response rating” value (pigweed; [4]) was 10, the “Redroot pigweed plant response rating (0 to 10 scale)” value (pigweed; Preemergence, Rate 250 g/ha) was 10 and the “Redroot pigweed plant response rating” value (pigweed; [5]) was 10. For the same compound, the “Plant response rating, Redroot pigweed” value (pigweed; [6]) was 9, the “Wheat plant response rating” value (wheat; [1]) was 0 and the “Plant response rating, Wheat” value (wheat; [2]) was 5. The “Wheat plant response rating” value (wheat; [3]) was 3, the “Wheat plant response rating” value (wheat; [4]) was 9 and the “Wheat plant response rating (0 to 10 scale)” value (wheat; Preemergence, Rate 250 g/ha) was 9. The “Wheat plant response rating” value (wheat; [5]) was 9, the “Plant response rating, Wheat” value (wheat; [6]) was 7 and the “Giant foxtail plant response rating” value (giant foxtail; [1]) was 7. The “Giant foxtail plant response rating” value (giant foxtail; [7]) was 7, the “Plant response rating, Giant foxtail” value (giant foxtail; [2]) was 8 and the “Giant foxtail plant response rating” value (giant foxtail; [3]) was 4. The “Giant foxtail plant response rating” value (giant foxtail; [4]) was 9, the “Giant foxtail plant response rating (0 to 10 scale)” value (giant foxtail; Preemergence, Rate 250 g/ha) was 8 and the “Giant foxtail plant response rating” value (giant foxtail; [5]) was 8. The “Plant response rating, Giant foxtail” value (giant foxtail; [6]) was 8, the “Blackgrass plant response rating” value (blackgrass; [1]) was 3 and the “Blackgrass plant response rating” value (blackgrass; [7]) was 3. For the same compound, the “Plant response rating, Blackgrass” value (blackgrass; [2]) was 3, the “Blackgrass plant response rating” value (blackgrass; [3]) was 4 and the “Blackgrass plant response rating” value (blackgrass; [4]) was 10. For the same compound, the “Blackgrass plant response rating (0 to 10 scale)” value (blackgrass; Preemergence, Rate 250 g/ha) was 10, the “Blackgrass plant response rating” value (blackgrass; [5]) was 10 and the “Plant response rating, Blackgrass” value (blackgrass; [6]) was 3. For the same compound, the “Corn plant response rating” value (corn; [1]) was 0, the “Corn plant response rating” value (corn; [7]) was 3 and the “Plant response rating, Corn” value (corn; [2]) was 7. The “Corn plant response rating” value (corn; [3]) was 0, the “Corn plant response rating” value (corn; [4]) was 3 and the “Corn plant response rating (0 to 10 scale)” value (corn; Preemergence, Rate 250 g/ha) was 9. For the same compound, the “Corn plant response rating” value (corn; [5]) was 9, the “Plant response rating, Corn” value (corn; [6]) was 7 and the “Bedstraw plant response rating” value (bedstraw; [3]) was 0. The “Bedstraw plant response rating” value (bedstraw; [4]) was 0, the “Bedstraw plant response rating (0 to 10 scale)” value (bedstraw; Preemergence, Rate 250 g/ha) was 0 and the “Bedstraw plant response rating” value (bedstraw; [5]) was 0. The “Plant response rating, Bedstraw” value (bedstraw; [6]) was 4, the “Morningglory plant response rating” value (morningglory; [1]) was 4 and the “Morningglory plant response rating” value (morningglory; [7]) was 4. For the same compound, the “Plant response rating, Morningglory” value (morningglory; [2]) was 10, the “Morningglory plant response rating” value (morningglory; [3]) was 0 and the “Morningglory plant response rating” value (morningglory; [4]) was 0. The “Morningglory plant response rating (0 to 10 scale)” value (morningglory; Preemergence, Rate 250 g/ha) was 0, the “Morningglory plant response rating” value (morningglory; [5]) was 8 and the “Plant response rating, Morningglory” value (morningglory; [6]) was 10. For the same compound, the “Cocklebur plant response rating” value (cocklebur; [1]) was 2, the “Cocklebur plant response rating” value (cocklebur; [7]) was 2 and the “Plant response rating, Cocklebur” value (cocklebur; [2]) was 2. For the same compound, the “Cocklebur plant response rating” value (cocklebur; [3]) was 0, the “Cocklebur plant response rating” value (cocklebur; [4]) was 0 and the “Cocklebur plant response rating (0 to 10 scale)” value (cocklebur; Preemergence, Rate 250 g/ha) was 0. For the same compound, the “Cocklebur plant response rating” value (cocklebur; [5]) was 2, the “Plant response rating, Cocklebur” value (cocklebur; [6]) was 2 and the “Plant response rating, Nutsedge” value (purple nutsedge; Rate 500 g/ha) was 5. The “Nutsedge plant response rating” value (purple nutsedge; [3]) was 0, the “Nutsedge plant response rating” value (purple nutsedge; [4]) was 0 and the “Nutsedge plant response rating (0 to 10 scale)” value (purple nutsedge; Preemergence, Rate 250 g/ha) was 0. For the same compound, the “Plant response rating, Nutsedge” value (purple nutsedge; Rate 250 g/ha) was 5, the “Rape plant response rating” value (rape; [1]) was 0 and the “Rape plant response rating” value (rape; [7]) was 0. The “Plant response rating, Rape” value (rape; [2]) was 7, the “Rape plant response rating” value (rape; [3]) was 0 and the “Rape plant response rating” value (rape; [4]) was 6. The “Rape plant response rating (0 to 10 scale)” value (rape; Preemergence, Rate 250 g/ha) was 10, the “Rape plant response rating” value (rape; [5]) was 10 and the “Plant response rating, Rape” value (rape; [6]) was 0. For the same compound, the “Velvetleaf plant response rating” value (velvetleaf; [1]) was 3, the “Plant response rating, Velvetleaf” value (velvetleaf; [2]) was 6 and the “Velvetleaf plant response rating” value (velvetleaf; [3]) was 0. The “Velvetleaf plant response rating” value (velvetleaf; [4]) was 0, the “Velvetleaf plant response rating (0 to 10 scale)” value (velvetleaf; Preemergence, Rate 250 g/ha) was 0 and the “Velvetleaf plant response rating” value (velvetleaf; [5]) was 7. For the same compound, the “Plant response rating, Velvetleaf” value (velvetleaf; [6]) was 6, the “Sugarbeets plant response rating” value (sugar beet; [1]) was 3 and the “Plant response rating, Sugarbeets” value (sugar beet; [2]) was 5. For the same compound, the “Sugarbeets plant response rating” value (sugar beet; [3]) was 6, the “Sugarbeets plant response rating” value (sugar beet; [4]) was 8 and the “Sugarbeets plant response rating (0 to 10 scale)” value (sugar beet; Preemergence, Rate 250 g/ha) was 9. The “Sugarbeets plant response rating” value (sugar beet; [5]) was 9, the “Plant response rating, Sugarbeets” value (sugar beet; [6]) was 3 and the “Plant response rating, B. signalgrass” value (surinam grass; Rate 500 g/ha, scale of 0 to 10 where 0 is no effect and 10 is complete control) was 7. For the same compound, the “B. signalgrass plant response rating” value (surinam grass; [3]) was 5, the “B. signalgrass plant response rating” value (surinam grass; [4]) was 8 and the “B. signalgrass plant response rating (0 to 10 scale, 0 is no effect, 10 is complete control)” value (surinam grass; Preemergence, Rate 250 g/ha) was 10. The “B. signalgrass plant response rating” value (surinam grass; [5]) was 10, the “Plant response rating, B. signalgrass” value (surinam grass; Rate 250 g/ha, scale of 0 to 10 where 0 is no effect and 10 is complete control) was 5 and the “Crabgrass plant response rating” value (crabgrass; [1]) was 7. For the same compound, the “Crabgrass plant response rating” value (crabgrass; [7]) was 5, the “Plant response rating, Crabgrass” value (crabgrass; [2]) was 10 and the “Crabgrass plant response rating” value (crabgrass; [3]) was 8. For the same compound, the “Crabgrass plant response rating” value (crabgrass; [4]) was 8, the “Crabgrass plant response rating (0 to 10 scale)” value (crabgrass; Preemergence, Rate 250 g/ha) was 10 and the “Crabgrass plant response rating” value (crabgrass; [5]) was 10. For the same compound, the “Plant response rating, Crabgrass” value (crabgrass; [6]) was 7, the “Wild oats plant response rating” value (wild oat; [1]) was 0 and the “Plant response rating, Wild oats” value (wild oat; [2]) was 4. The “Wild oats plant response rating” value (wild oat; [3]) was 4, the “Wild oats plant response rating” value (wild oat; [4]) was 9 and the “Wild oats plant response rating (0 to 10 scale)” value (wild oat; Preemergence, Rate 250 g/ha) was 10. The “Wild oats plant response rating” value (wild oat; [5]) was 10, the “Plant response rating, Wild oats” value (wild oat; [6]) was 0 and the “Soybean plant response rating” value (soybean; [1]) was 3. The “Plant response rating, Soybean” value (soybean; [2]) was 5, the “Soybean plant response rating” value (soybean; [3]) was 0 and the “Soybean plant response rating” value (soybean; [4]) was 0. The “Soybean plant response rating (0 to 10 scale)” value (soybean; Preemergence, Rate 250 g/ha) was 9, the “Soybean plant response rating” value (soybean; [5]) was 9 and the “Plant response rating, Soybean” value (soybean; [6]) was 4.
